Test results as given in ChEMBL document CHEMBL4811291, “Discovery of macrocyclic HDACs 1, 2, and 3 selective inhibitors for HIV latency reactivation” (Bioorg Med Chem Lett, 2021).

Tests used:
[1] = test system: Human immunodeficiency virus; test: Reactivation of HIV latency infected in human 2C4 cells in presence of 0.1 % NHS by luciferase reporter gene assay; assay type: functional, organism-based; conditions: Human immunodeficiency virus 1, 2C4
[2] = test system: Human immunodeficiency virus; test: Reactivation of HIV latency infected in human 2C4 cells in presence of 5 % NHS by luciferase reporter gene assay; assay type: functional, organism-based; conditions: Human immunodeficiency virus 1, 2C4
Histone deacetylase 8 = molecular target: T1, Histone deacetylase 8 (Homo sapiens, UniProt Q9BY41); test: Inhibition of HDAC8 (unknown origin)
T1 sequence (Q9BY41 whole entry): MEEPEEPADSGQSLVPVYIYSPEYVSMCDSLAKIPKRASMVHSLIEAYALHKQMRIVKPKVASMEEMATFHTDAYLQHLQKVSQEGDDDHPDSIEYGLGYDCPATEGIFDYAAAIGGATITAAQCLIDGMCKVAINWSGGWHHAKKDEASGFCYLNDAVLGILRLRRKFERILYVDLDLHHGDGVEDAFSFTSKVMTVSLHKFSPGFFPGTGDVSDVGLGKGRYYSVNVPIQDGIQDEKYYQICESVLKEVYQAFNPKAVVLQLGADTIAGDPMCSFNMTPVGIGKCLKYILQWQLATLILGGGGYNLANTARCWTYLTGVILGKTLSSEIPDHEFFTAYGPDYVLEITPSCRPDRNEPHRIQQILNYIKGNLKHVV

[3] = molecular target: T2, Protein deacetylase HDAC6 (Homo sapiens, UniProt Q9UBN7); test: Inhibition of HDAC6 (unknown origin)
T2 sequence (Q9UBN7 whole entry): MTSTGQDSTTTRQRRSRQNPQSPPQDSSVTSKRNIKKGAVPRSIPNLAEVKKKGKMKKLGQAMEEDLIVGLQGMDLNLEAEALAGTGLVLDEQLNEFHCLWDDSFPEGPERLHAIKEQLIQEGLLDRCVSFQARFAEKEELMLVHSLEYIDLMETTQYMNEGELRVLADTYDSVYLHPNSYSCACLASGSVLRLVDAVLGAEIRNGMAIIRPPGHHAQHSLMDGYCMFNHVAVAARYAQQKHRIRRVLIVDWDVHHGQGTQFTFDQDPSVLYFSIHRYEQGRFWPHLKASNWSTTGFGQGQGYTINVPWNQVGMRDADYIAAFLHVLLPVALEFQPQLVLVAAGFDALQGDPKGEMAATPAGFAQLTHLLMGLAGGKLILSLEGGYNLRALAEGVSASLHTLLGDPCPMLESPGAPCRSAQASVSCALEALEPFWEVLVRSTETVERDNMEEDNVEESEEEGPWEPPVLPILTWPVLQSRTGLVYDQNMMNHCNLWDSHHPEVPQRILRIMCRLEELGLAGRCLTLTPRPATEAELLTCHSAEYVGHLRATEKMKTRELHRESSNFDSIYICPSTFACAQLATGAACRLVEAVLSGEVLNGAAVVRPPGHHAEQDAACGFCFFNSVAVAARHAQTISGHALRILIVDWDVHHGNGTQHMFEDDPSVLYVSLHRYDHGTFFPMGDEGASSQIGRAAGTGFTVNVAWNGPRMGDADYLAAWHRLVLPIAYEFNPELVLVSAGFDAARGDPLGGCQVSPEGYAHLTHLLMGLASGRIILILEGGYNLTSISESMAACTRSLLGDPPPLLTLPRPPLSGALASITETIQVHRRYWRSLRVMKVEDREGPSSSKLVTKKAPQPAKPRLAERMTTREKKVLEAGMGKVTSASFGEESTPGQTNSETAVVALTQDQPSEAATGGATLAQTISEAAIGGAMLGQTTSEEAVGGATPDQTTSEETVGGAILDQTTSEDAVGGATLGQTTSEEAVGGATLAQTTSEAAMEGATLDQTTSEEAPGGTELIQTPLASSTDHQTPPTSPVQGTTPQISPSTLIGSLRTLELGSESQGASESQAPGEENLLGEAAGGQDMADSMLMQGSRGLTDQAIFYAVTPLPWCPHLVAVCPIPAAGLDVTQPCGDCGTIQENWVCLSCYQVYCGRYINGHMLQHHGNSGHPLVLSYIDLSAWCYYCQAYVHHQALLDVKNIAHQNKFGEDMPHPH

[4] = Half life in Wistar Han rat at 0.05 mg/kg, iv; assay type: ADME, organism-based; conditions: in vivo
Homo sapiens = organism: Homo sapiens; test: Selectivity ratio of IC50 for HDAC8 (unknown origin) to IC50 for HDAC6 (unknown origin)
[5] = Ratio of EC50 for reactivation of HIV latency infected in human 2C4 cells in presence of 5 % NHS by luciferase reporter gene assay to EC50 for reactivation of HIV latency infected in human 2C4 cells in presence of 0.1 % NHS by luciferase reporter gene assay; assay type: functional, Human immunodeficiency virus
[6] = Clearance in Wistar Han rat at 0.05 mg/kg, iv; assay type: ADME, organism-based; conditions: in vivo
Histone deacetylase 3 = Histone deacetylase 3 (Homo sapiens, UniProt O15379); test: Inhibition of HDAC3 (unknown origin)
Sequence of Histone deacetylase 3 (O15379 whole entry): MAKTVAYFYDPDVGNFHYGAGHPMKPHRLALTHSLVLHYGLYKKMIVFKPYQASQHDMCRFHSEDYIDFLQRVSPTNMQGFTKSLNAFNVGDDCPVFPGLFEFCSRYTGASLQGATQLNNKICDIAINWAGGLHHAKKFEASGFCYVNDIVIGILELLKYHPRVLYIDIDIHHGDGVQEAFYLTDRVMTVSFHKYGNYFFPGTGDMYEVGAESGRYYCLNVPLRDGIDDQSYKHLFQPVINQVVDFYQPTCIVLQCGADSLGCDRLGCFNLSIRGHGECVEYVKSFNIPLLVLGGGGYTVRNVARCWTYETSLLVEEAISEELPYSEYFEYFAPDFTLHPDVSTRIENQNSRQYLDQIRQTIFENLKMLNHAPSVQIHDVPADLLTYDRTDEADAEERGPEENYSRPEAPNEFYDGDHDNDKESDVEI

Histone deacetylase 2 = Histone deacetylase 2 (Homo sapiens, UniProt Q92769); test: Inhibition of HDAC2 (unknown origin)
Sequence of Histone deacetylase 2 (Q92769 whole entry): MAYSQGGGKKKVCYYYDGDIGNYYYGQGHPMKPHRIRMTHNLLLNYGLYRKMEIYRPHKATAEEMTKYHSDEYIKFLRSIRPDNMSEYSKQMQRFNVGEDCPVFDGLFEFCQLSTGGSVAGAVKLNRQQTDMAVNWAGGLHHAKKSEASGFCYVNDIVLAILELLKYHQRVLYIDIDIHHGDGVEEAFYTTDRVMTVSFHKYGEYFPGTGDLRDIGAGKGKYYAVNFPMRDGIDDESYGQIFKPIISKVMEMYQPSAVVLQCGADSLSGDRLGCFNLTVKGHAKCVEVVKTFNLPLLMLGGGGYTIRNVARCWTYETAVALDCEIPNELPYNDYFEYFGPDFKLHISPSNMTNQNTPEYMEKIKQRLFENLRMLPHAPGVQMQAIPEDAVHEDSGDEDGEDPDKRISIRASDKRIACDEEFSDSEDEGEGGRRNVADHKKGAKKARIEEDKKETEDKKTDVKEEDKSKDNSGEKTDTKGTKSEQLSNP

Histone deacetylase 1 = Histone deacetylase 1 (Homo sapiens, UniProt Q13547); test: Inhibition of HDAC1 (unknown origin)
Sequence of Histone deacetylase 1 (Q13547 whole entry): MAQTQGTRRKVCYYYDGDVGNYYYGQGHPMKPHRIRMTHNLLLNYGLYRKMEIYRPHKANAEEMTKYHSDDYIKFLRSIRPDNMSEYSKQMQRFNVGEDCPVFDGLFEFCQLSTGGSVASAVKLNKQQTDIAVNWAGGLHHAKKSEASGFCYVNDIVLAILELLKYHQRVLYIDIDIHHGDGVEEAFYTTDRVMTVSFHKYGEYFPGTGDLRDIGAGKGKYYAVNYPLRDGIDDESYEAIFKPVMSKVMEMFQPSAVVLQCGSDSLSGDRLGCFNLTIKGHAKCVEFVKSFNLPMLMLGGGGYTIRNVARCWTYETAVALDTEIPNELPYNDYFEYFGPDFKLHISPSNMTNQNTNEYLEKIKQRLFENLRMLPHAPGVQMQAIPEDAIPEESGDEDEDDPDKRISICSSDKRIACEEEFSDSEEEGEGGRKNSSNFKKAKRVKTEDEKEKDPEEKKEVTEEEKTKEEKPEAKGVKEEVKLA

[7] = Tmax in Wistar Han rat at 10 mg/kg, po; assay type: ADME, organism-based; conditions: in vivo
[8] = Oral bioavailability in Wistar Han rat at 10 mg/kg; assay type: ADME, organism-based; conditions: in vivo
[9] = Cmax in Wistar Han rat at 10 mg/kg, po; assay type: ADME, organism-based; set-up: route oral, dose 10 mg/kg; conditions: in vivo
[10] = Clearance in Wistar Han rat at 2 mg/kg, iv; assay type: ADME, organism-based; conditions: in vivo
[11] = AUC in Wistar Han rat at 10 mg/kg, po; assay type: ADME, organism-based; set-up: dose 10 mg/kg; conditions: in vivo
[12] = Plasma concentration in Wistar Han rat at 10 mg/kg, po after 24 hrs; assay type: ADME, organism-based
[13] = Half life in Wistar Han rat at 2 mg/kg, iv; assay type: ADME, organism-based; conditions: in vivo

| EC50 [1] | EC50 [2] | IC50 (Histone deacetylase 8) | IC50 [3] | IC50 (Histone deacetylase 3) | IC50 (Histone deacetylase 2) | IC50 (Histone deacetylase 1) | SMILES | other results |
| --- | --- | --- | --- | --- | --- | --- | --- | --- |
| 14 nM | 0.016 µM | > 900 nM | > 900 nM | 0.06 nM |  |  | CCC(=O)CCCCC[C@@H]1NC(=O)[C@H]2CC23CCN(CCCCCCCCn2ccc4cc(ccc4c2=O)-c2cnc1[nH]2)CC3 | half-life [4]: 168 min; Ratio IC50 (Homo sapiens): > 1000; Ratio EC50 [5]: 1.1; clearance [6]: 312 mL/min/kg |
|  | 0.13 µM |  |  |  |  |  | CCC(=O)CCCCC[C@H](NC(=O)[C@H]1CC12CCN(C)CC2)c1ncc(-c2ccc3c(=O)n(C)ccc3c2)[nH]1 |  |
| 6270 nM | 9.06 µM | > 900 nM | > 900 nM |  | 24 nM |  | CCC(=O)CCCCC[C@@H]1NC(=O)[C@H]2CC23CCN(CCCCN2C4CCC2c2c(cccc24)-c2cnc1[nH]2)CC3 (stereo partly drawn) |  |
| 3170 nM | 5.09 µM | 21500 nM | 5390 nM | 91 nM | 911 nM | 216 nM | CCC(=O)CCCCC[C@@H]1NC(=O)C2CCN2CCCCCOc2ccccc2-c2cnc1[nH]2 (stereo in doubt; 4) |  |
| 1570 nM | 3.02 µM | 8420 nM | 5550 nM | 105 nM | 668 nM | 218 nM | CCC(=O)CCCCC[C@@H]1NC(=O)C2CCN2CCCCCCOc2ccccc2-c2cnc1[nH]2 (stereo in doubt; 6) |  |
| 52 nM | 0.056 µM |  |  | < 1.5 nM | < 1.5 nM | < 1.5 nM | CCC(=O)CCCCC[C@H](NC(=O)[C@H]1CC12CCN(CC)CC2)c1ncc(-c2ccc3c(=O)n(CC)ccc3c2)[nH]1 |  |
|  |  |  | 680 nM |  |  |  | CCC(=O)CCCCC[C@H](NC(=O)C1CN(C)C1)c1ncc(-c2cc3ccccc3nc2OC)[nH]1 |  |
|  |  |  | 17500 nM | 188 nM | 1140 nM | 355 nM | CCC(=O)CCCCC[C@@H]1NC(=O)C2CCN2CCCCCCc2ccccc2-c2cnc1[nH]2 (stereo in doubt; 8) |  |
|  |  |  |  | 791 nM | 8620 nM | 2560 nM | CCC(=O)CCCCC[C@@H]1NC(=O)C2CCN2CCCCCOc2ccccc2-c2cnc1[nH]2 (stereo in doubt; 3) |  |
| 5240 nM | 19.3 µM |  |  |  |  |  | CCC(=O)CCCCC[C@H](NC(=O)[C@H]1CC12CCN(CC)CC2)c1[nH]c2nc1C(=O)NCCC/C=C/c1cccc-2c1 |  |
| > 40000 nM | > 40 µM | > 900 nM | > 900 nM |  |  |  | CCC(=O)CCCCC[C@@H]1NC(=O)[C@H]2CC23CCN(CCOCCn2ccc4cc(ccc4c2=O)-c2cnc1[nH]2)CC3 | Tmax [7]: 15 min; bioavailability [8]: 0.15%; Cmax [9]: 62 nM; clearance [10]: 3.9 mL/min/kg; AUC [11]: 0.11 µM·h; concentration at 24 h [12]: 1 nM; half-life [13]: 234 min |
| 73 nM | 0.076 µM | > 900 nM | > 900 nM |  | 0.86 nM |  | CCC(=O)CCCCC[C@@H]1NC(=O)[C@H]2CC23CCN(C/C=C/CN2C4CCC2c2cc(ccc24)-c2cnc1[nH]2)CC3 (stereo partly drawn) |  |
| > 40000 nM | > 40 µM | > 900 nM | > 900 nM |  |  |  | CCC(=O)CCCCC[C@@H]1NC(=O)[C@H]2CC23CCN(CCCCCOc2ccc4cc(ccc4n2)-c2cnc1o2)CC3 |  |

| SMILES | EC50 [1] | EC50 [2] | IC50 (Histone deacetylase 8) | IC50 [3] | IC50 (Histone deacetylase 3) | IC50 (Histone deacetylase 2) | IC50 (Histone deacetylase 1) | other results |
| --- | --- | --- | --- | --- | --- | --- | --- | --- |
| CCC(=O)CCCCC[C@@H]1NC(=O)CN(C)CCCCOCCCCn2ccc3cc(ccc3c2=O)-c2cnc1[nH]2 | 2500 nM | 3.51 µM | > 900 nM | > 900 nM |  |  |  |  |
